Source: article PMC11172460 (International Journal of Molecular Sciences, 2024)

What was measured:
differentiated N2a cells [1] = test: MTT assay of H2O2-altered viability (neuroprotection); assay type: cell-based, mouse; conditions: then 100 µM H2O2 for 24 h
Description: (§1) N2a cells were seeded on T75 flasks and grown in Dulbecco’s Modified Eagle Medium (DMEM) containing Glutamax, supplemented with 100 μg/mL streptomycin, 100 IU/mL penicillin, and 10% fetal bovine serum (FBS) in a humidified 5% CO2 atmosphere at 37 °C. After two passages by trypsinization, cells were seeded at a density of 5 × 10^3 cells/well in 12-well plates with 2 mL of DMEM or at a density of 5 × 10^2 cells/well in 96-well plates with 0.2 mL of DMEM, depending on the study (see below). For neural differentiation, N2a cells were allowed to adhere and proliferate in wells for 4 days; then, after washing once with serum-free DMEM, differentiating medium composed of DMEM containing 1% HS and 20 μM all-trans-retinoic acid (atRA) was added in both the seeding conditions, up to 6 days of differentiation, after which the cells were used for the experiments.
The MTT assay was also carried out to determine the neuroprotective effect of Fer-Ger on H2O2-induced cell oxidative stress in N2a neuronal cells. Briefly, N2a cells (5 × 10^2) were seeded and differentiated into 96-well plates, as reported above. Then, cells were incubated with 1 µM and 5 µM Fer-Ger dissolved in DMEM containing 0.5% HS for 1 h in a humidified 5% CO2 atmosphere at 37 °C. The experimental design therefore included cells incubated with only culture medium as a control and cells incubated for 24 h with 100 µM H2O2 as a damage-inducing agent after 1 h of preincubation in the absence or presence of 1 µM or 5 µM Fer-Ger. Then, 20 μL of MTT (5 mg/mL) was added into the 200 µL of the incubation medium. Four hours later, the medium containing MTT was aspirated and replaced by 100 µL of dimethyl sulfoxide (DMSO) solubilization agent for 1 h at 37 °C in an orbital shaker incubator. Finally, the absorbance of each well was measured at 570 nm using a microtiter plate reader (Sunrise® Microplate Reader, Tecan Trading AG, Männedorf, Switzerland).

differentiated N2a cells [2] = test: DCFH-DA assay of intracellular ROS production; assay type: cell-based, mouse
Description: as §1
The potential antioxidant effect of Fer-Ger was evaluated according to the original method of Wang and Joseph. In this method, the nonpolar 2′,7′-dichlorofluorescin diacetate (DCFH-DA) enters the intact cells and is hydrolyzed by intracellular esterases to nonfluorescent DCFH carboxylate anion, which remains entrapped and becomes the high fluorescent dichlorofluorescin (DCF) after oxidation by free radicals generated by a stressor, such as H2O2. Therefore, H2O2-induced intracellular ROS production was measured in N2a cells by a florescence intensity assay following exposure to the oxidation-sensitive dye DCFH-DA. N2a cells were seeded at a density of 1 × 10^4 cells/well in a black-coated and clear bottom 96-well plate and neuron-differentiated as reported above. After 6 days, differentiating medium in N2a cells was replaced with pre-warmed phenol-red-free and serum-free DMEM containing 10 µM DCFH-DA and incubated for 30 min in the dark in a humidified 5% CO2 atmosphere at 37 °C. The 10 µM DCFH-DA loading solution was then removed, and the cells were washed twice with fresh phenol-red-free and serum-free DMEM to remove the redundant extracellular DCFH-DA probe. Subsequently, N2a cells were incubated with pre-warmed phenol-red free DMEM containing 1% FBS as an untreated control and with solutions dissolved in phenol-red free DMEM containing 1% FBS of Fer-Ger (1, 5, or 10 µM) or 100 µM ascorbic acid (AA, as an established antioxidant positive control) and incubated for 1 h in a humidified 5% CO2 atmosphere at 37 °C. After this time, 100 µM H2O2 was added in the absence or presence of 1, 5 or 10 µM Fer-Ger or 100 µM AA, and the fluorescence intensity was measured at an excitation wavelength of 485 nm and at an emission wavelength of 530 nm, monitoring the oxidation of DCFH to DCF by the intracellular ROS by running the kinetic over 75 min in a fluorescence microplate reader (VICTOR^3TM 1420 Multilabel counter, PerkinElmer, Milan, Italy). Results were represented as a percentage of intracellular ROS production (100% of control) resulting from the mean values ± SEM of sextuplicate wells over time.

[3] = In vitro dissolution and release from SLMs; assay type: physicochemical; conditions: within 6 h, DPBS/MeOH 70:30 v/v, 37 °C
Description: Fer-Ger dissolution and release from the SLMs were evaluated by adding raw Fer-Ger (about 0.1 mg) or SLMs, containing an equivalent amount of Fer-Ger, to 60 mL of a mixture of DPBS and methanol (70:30 v/v). The samples were kept under mechanical stirring at 50 rpm and 37 °C. At defined time intervals, 0.2 mL aliquots of the medium were withdrawn and replaced with an equal volume of fresh fluid. The aliquots were filtered (0.45 μm) and injected (10 μL) into the HPLC apparatus for Fer-Ger quantification. The dissolution or release (%) of Fer-Ger was calculated from its total amount incubated as a free compound or contained in the SLMs, respectively. The data were determined from the average of three independent experiments.

With `COc1cc(/C=C/C(=O)OC/C=C(\C)CCC=C(C)C)ccc1O` [Fer-Ger, Geranyl ferulate] the “prevention of H2O2-induced cell viability damage” value (differentiated N2a cells [1]; 1 µM Fer-Ger preincubated 1 h) was “fully prevented”, the “prevention of H2O2-induced cell viability damage” value (differentiated N2a cells [1]; 5 µM Fer-Ger preincubated 1 h) was “fully prevented” and the “effect on basal ROS production” value (differentiated N2a cells [2]; Fer-Ger 1, 5 and 10 µM alone, 75 min) was “did not affect the ROS production”. The “effect on H2O2-induced ROS production” value (differentiated N2a cells [2]; Fer-Ger 1, 5 and 10 µM with 100 µM H2O2, all times tested, p < 0.05) was “increased the H2O2-induced ROS production” and the “raw powder solubilized (dissolution)” value [3] was “about 30%”.
